Results on seven compounds are retold here after patent publication US8153693B2, “Compounds for the selective treatment of the intestinal immuno-inflammatory component of the celiac disease” (Giuliani International Limited, priority 2007, dated 2012).

The test system of data set [1] is HT-29 STD cells. Briefly: Cytotoxic effect on epithelial cells seen in the HT-29 experiments. It counts as cell-based. Conditions: 30 mM. The method, then: After 24 h of culture, HT-29 STD cells were treated during 24 h with the compounds A, B, C, D and F, at 30 mM. […] The pH of the drug solutions was adjusted to 7.4 with NaOH. Cells were fixed in PFA 4%, permeabilized in PBS containing 0.1% Triton X-100™ at 4° C. and then incubated with goat normal serum and blocking buffer (1% BSA in PBS) to minimize non-specific adsorption of the antibody.
(§1) After 24 h of culture, HT-29 STD cells were treated during 24 h with the compounds A, B, C, D, F, at a concentration of 30 mM. […] The pH of the drug solutions was adjusted to 7.4 with NaOH. Cells undergoing apoptosis were identified by enzymatic labelling of DNA strands using a terminal transferase dUTP nick end labelling assay (TUNEL assay, Roche Diagnostics™, Meylan, France). Counts of at least 500 cells/sample were systematically performed blindly in one experiment. The results were expressed as the mean±SEM of the number of stained cells.

The test system of data set [2] is PPARγ. Put plainly: PPARγ expression by western blot in HT-29 cells. It counts as cell-based. Conditions: for induction of PPARγ expression at the protein levels (in words): HT-29 cell line; for mean induction of PPARγ protein levels quantified by western blot: cells treated during 24 hours. The method, then:
(§2) The colon cell line HT-29 STD (ATCC HTB-38) was routinely grown in DMEM supplemented with 10% heat-FCS, and antibiotics. Cells were grown in monolayers, incubated at 37° C. in 5% CO2 and 95% relative humidity.
The total proteins were obtained by cell homogenization in an extraction buffer consisting of PBS with 2% Triton™, Phenyl Methyl Sulphonyl Fluoride (PMSF) 100 mM and a classical protease inhibitor cocktail. The total proteins were then separated by polyacrylamide gel electrophoresis and electroblotted. Polyvinylidendifluoride (PVDF) membranes were incubated overnight with rabbit polyclonal primary antibody directed against PPARγ (dilution 1/500, TEBU, Le Perray en Yveline, France). β-actin was detected using a rabbit monoclonal primary antibody diluted at 1/10,000 (Sigma). Immunodetection with a secondary peroxidase-conjugated antibody (1/1000, Dako™, Trappes, France) and chemiluminescence was performed according to the manufacturer's protocol (ECL™, Amersham Pharmacia Biotech™, Orsay, France). Optical density values of PPARγ were given for each condition in proportion to the quantity of the internal control β-actin in the same sample.
On the technique in general: In western blotting, separated proteins are transferred to a membrane and probed.

Data set [3] can be described thus: Solubility of the molecules in the cell experiments. It counts as physicochemical. The following applies: reason for exclusion from the cell experiments.
Data set [4] concerns the target T1, PPARγ (Homo sapiens, UniProt P37231).
T1 construct: HT-29 STD cells were transiently transfected using the Effectene™ transfection reagent; endogenous in cells; host or cells: HT-29 STD (ATCC HTB-38)
T1 sequence (P37231 1-505): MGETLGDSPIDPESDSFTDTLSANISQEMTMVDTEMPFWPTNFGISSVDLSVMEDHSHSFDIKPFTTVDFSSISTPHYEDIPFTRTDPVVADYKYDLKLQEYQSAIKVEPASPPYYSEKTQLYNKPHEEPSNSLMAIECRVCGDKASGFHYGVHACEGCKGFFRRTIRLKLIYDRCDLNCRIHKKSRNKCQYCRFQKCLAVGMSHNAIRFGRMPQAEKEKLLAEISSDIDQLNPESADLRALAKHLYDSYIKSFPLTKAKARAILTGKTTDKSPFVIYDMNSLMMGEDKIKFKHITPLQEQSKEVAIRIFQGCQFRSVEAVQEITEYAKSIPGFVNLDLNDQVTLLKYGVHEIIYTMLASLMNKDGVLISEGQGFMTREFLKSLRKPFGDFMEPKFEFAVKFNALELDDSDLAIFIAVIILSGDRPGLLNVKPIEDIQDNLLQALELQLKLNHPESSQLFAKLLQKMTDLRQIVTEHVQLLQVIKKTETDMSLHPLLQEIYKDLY
Put plainly: PPARγ activation, PPRE luciferase reporter in transfected HT-29 STD cells (Example 5). Format: cell-based. The following applies: 30 mM; for increase of the reporter gene activity: 24 hours, versus non-stimulated cells. The procedure:
as §2
HT-29 STD cells were transiently transfected using the Effectene™ transfection reagent (Qiagen™) according to instructions from the manufacturer. To test PPARγ activation, we performed transfection with 500 ng of a minimal promoter construct containing two copies of PPRE obtained from the cytochrome p450 4A (2×CYP). The renilla luciferase plasmid (0.1 μg/well) was also transfected as an internal control for monitoring transfection efficiency and for normalizing the firefly luciferase activity. Transfected cells were left for 48 hours incubation at 37° C. […] The pH of the drug solutions was adjusted to 7.4 with NaOH. Total cell extracts were prepared using the Passive Lysis Buffer (Promega™, Madison, Wis.). Luciferase activity was assayed in 20 μl of the extract using the Promega™ Dual Luciferase assay system according to the manufacturer's protocol. Transfections were assayed in triplicate in at least three separate experiments. The luciferase activity was expressed as fold of the activity obtained in cells treated with the different molecules divided by luciferase activity from non-stimulated cells.
We investigated PPARγ transcriptional activity by transient transfections of epithelial cells with the renilla luciferase PPRE plasmids. Cells were stimulated with the different molecules during 24 hours.

In data set [5] the test system is HT-29 STD cells. Put plainly: Detection of apoptosis, TUNEL assay. It counts as cell-based. Conditions: 30 mM, 24 h. The method, then:
as §1

Molecules are shown by their SMILES. “Also recorded” adds a separate entry of the source.

As to `COc1ccc(N)cc1C(=O)NO` [A], the “cytotoxic effect on epithelial cells” value in the data set with HT-29 STD cells [1] is “rapid cytotoxic effects; also recorded: direct cytotoxic effects”.

As for `CCOc1ccc(N)cc1C(=O)NO` [Compound D], in the data set on PPARγ [2], the “induction of PPARγ expression at the protein levels (in words)” value (“induction of PPARγ expression” below) was “induce PPARγ expression” and the “mean induction of PPARγ protein levels quantified by western blot” value (shortened to “mean induction”) came out at 2 fold. In addition, in the data set with HT-29 STD cells [1], the “cytotoxic effect on epithelial cells” value is on record as “rapid cytotoxic effect; also recorded: direct cytotoxic effects”.

For `CC(C)N(c1ccc(O)c(C(=O)O)c1)C(C)C` [G], the solubility entry in data set [3] is reported as “poor solubility”. The “cytotoxic effect on epithelial cells” value in the data set with HT-29 STD cells [1] was “rapid cytotoxic effect; also recorded: direct cytotoxic effects”.

`Nc1cc2c(c(C(=O)O)c1)OCC2` [C]: in the data set with PPARγ [2], the “induction of PPARγ expression” value is on record as “induce PPARγ expression” and the “mean induction” value was 2 fold. At PPARγ [4], the “PPARγ activation (in words)” value is on record as “induce PPARγ activation” and the “increase of the reporter gene activity” value is on record as “two-fold”.

Consider `CC(C)Oc1ccc(N)cc1C(=O)O` [F], for which, in the data set on PPARγ [2], the “induction of PPARγ expression” value was “induce PPARγ expression” and the “mean induction” value is reported as 2 fold. For the same compound, on PPARγ [4], the “PPARγ activation (in words)” value is given as “induce PPARγ activation” and the “increase of the reporter gene activity” value is recorded as “two-fold”. In the data set on HT-29 STD cells [5], the “apoptosis, share of epithelial cells (TUNEL)” value is on record as 80%.

As to `COc1cc(N)ccc1C(=O)NO` [B], the “cytotoxic effect on epithelial cells” value in the data set on HT-29 STD cells [1] is recorded as “rapid cytotoxic effects; also recorded: direct cytotoxic effects”.

Consider `CC1(C)OC(=O)c2cc(N)ccc2O1` [E], for which the solubility entry in data set [3] is “poor solubility”.
